For 85 compounds, XC50 results are on record in ChEMBL document CHEMBL1157539, “Thousands of chemical starting points for antimalarial lead identification” (Nature, 2010).

Each structure is given as a SMILES string.

This assay has as its system Plasmodium falciparum. Put plainly: GSK_TCMDC: Inhibition of Plasmodium falciparum 3D7 in whole erythrocytes, using parasite LDH activity as an index of growth. The format is functional, organism-based. The note with it: Plasmodium falciparum, 3D7.
In turn, `CC(C)c1cc2c(ccc3nc(N)nc(N)c32)[nH]1` displayed an XC50 of 39 nM.

Compound `COc1ccc(Oc2cnc(N)nc2N)c(C(C)C)c1` returned an XC50 of 740 nM.

Take `Cc1cc(NCCC(=O)NCCOc2ccccc2)nc(NCc2ccccc2C)n1`: the XC50 is 867 nM.

Turning to `CN1CCN(CC(=O)Nc2cccc(-c3ccc(-c4nc5cc(F)ccc5[nH]4)cc3)c2)CC1`, the XC50 was 703 nM.

For the compound `CNCCNCc1cccc(-c2cccc(-c3nc4cc(C(F)(F)F)ccc4[nH]3)c2)c1`, the XC50 came to 203 nM.

`O=C(Nc1ccc(Cn2nc(Cl)c(N3CCCNCC3)cc2=O)cc1)c1ccc(-c2ccccc2)cc1` yielded an XC50 of 713 nM.

Compound `COc1ccc(C=NNc2nc(O)cc(-c3ccccc3)n2)cc1OC` gave an XC50 of 595 nM.

The compound `COc1cc(C)nc2ccc(NC(=O)c3ccc(C(=O)Nc4ccc5nc(C)cc(OC)c5c4)cc3)cc12` gave an XC50 of 63.3 nM.

Compound `CC(C)CNC(=O)c1cncc(-c2ccc(CNCCCc3ccccc3)cc2)c1` came in with an XC50 of 770 nM.

`COc1ccc(S(=O)(=O)NC2CCN(c3ccc(C(F)(F)F)cc3NC(=O)OCC(C)C)CC2)cc1` gave an XC50 of 1220 nM.

`CCC1=C[C@@H]2CN(C1)Cc1c([nH]c3ccccc13)[C@@](C(=O)OC)(c1cc3c(cc1OC)N(C)[C@H]1[C@@](O)(C(=O)OC)[C@H](O)[C@]4(CC)C=CCN5CC[C@]31[C@@H]54)C2`: the XC50 amounted to 866 nM.

Compound `CC(CN1CCN(C)CC1)C(=O)Nc1ccc(-c2cccc(-c3nc4ccccc4[nH]3)c2)cc1` (stereo not given) gave an XC50 of 566 nM.

Compound `COc1cc(NC2CCCC(NCc3cn(S(=O)(=O)c4ccccc4)c4ccccc34)C2)nc2ccccc12` (stereo not given) returned an XC50 of 248 nM.

As to `CCc1ccc(NC(=O)c2ccc(CN3CCCN(Cc4cccc(O)c4)CC3)cc2)cc1`, the XC50 is 673 nM.

Consider `CCc1sc(-c2cc(Cl)ccc2OC)nc1C(=O)NCCN1CCCCC1`, for which the XC50 turned out to be 938 nM.

`COc1ccc(S(=O)(=O)Nc2cc(Br)cc3c2OCCC3)cc1N1CCN(C(=O)C(Cl)(Cl)Cl)CC1` came in with an XC50 of 871 nM.

Compound `Cc1cc(=O)[nH]c(-n2nc(C)cc2NC(=O)C(c2ccccc2)c2ccccc2)n1` showed an XC50 of 839 nM.

The compound `Cc1nc(-c2ccc(-c3ccc(NC(=O)c4coc5ccc(N6CC(C)NC(C)C6)cc45)cc3)c(C)c2)no1` (stereo not given) showed an XC50 of 925 nM.

`COc1cccc2c(NN=Cc3ccccc3Cl)cc(C)nc12` came in with an XC50 of 211 nM.

For the compound `COc1cc(Nc2nccc(N3CCC(NC(=O)c4cccc(NC(C)=O)c4)C3)n2)cc(OC)c1OC` (stereo not given), the XC50 turned out to be 828 nM.

As for `CCc1ccc(CN2CCC(CNC(=O)c3cc(-c4ccccc4F)cs3)C2)cc1` (stereo not given), the XC50 amounted to 899 nM.

Consider `O=C(Nc1ccc(-c2ccccc2)cc1)Nc1cccc(Cn2ncc(N3CCNCC3)c(Cl)c2=O)c1`, for which the XC50 turned out to be 456 nM.

In turn, `N#Cc1ccc(N2CCN(C(=O)c3cccc(-c4noc(C(F)(F)F)n4)c3)CC2)nc1` yielded an XC50 of 220 nM.

In turn, `O=C(/C=C/c1ccc(C(F)(F)F)cc1)N1CCc2cc3nccc(N4CCN5CCC[C@H]5C4)c3cc21` showed an XC50 of 1510 nM.

In turn, `Cc1cc(CN2CC[C@H](NC(=O)c3ccc(Cl)c(Cl)c3)C2)ccc1OC1CCN(C)C1` (stereo not given in full) returned an XC50 of 947 nM.

`Cc1cc(N2CCC(NS(=O)(=O)c3ccc(F)cc3)CC2)nc(Nc2cccc(C#N)c2)n1` gave an XC50 of 651 nM.

Compound `Cc1cccc2nc(-c3ccc(-c4cccc(CN5CCN(c6ccncc6)CC5)c4)s3)[nH]c12` showed an XC50 of 126 nM.

`Cc1ccc(NC(=O)c2cccc(C#N)c2)cc1-c1ccc(C(=O)Nc2ccncc2)cc1`: the XC50 came out at 688 nM.

`O=C(c1cccc(Cl)c1)N1CCN(c2ccc([N+](=O)[O-])c(NC3CC3)c2)CC1` came in with an XC50 of 867 nM.

`CCNc1cc(C(=O)N[C@@H](Cc2ccc(F)c(F)c2)[C@H](O)CNC2CCCCC2)cc(N2CCCCS2(=O)=O)c1` showed an XC50 of 117 nM.

Take `COc1ccc2nccc([C@@H](O)CN3CCC(NCc4nc5c(cc4F)SCC(=O)N5)C(F)C3)c2c1` (stereo not given in full): the XC50 worked out at 725 nM.

The compound `O=C(N[C@@H](Cc1ccccc1)C(=O)NCc1cccc2ccccc12)c1ccc(O)c(-c2ccc(Cl)c(Cl)c2)c1` registered an XC50 of 236 nM.

`COc1ccc2c(NN=Cc3ccncc3)ccnc2c1` had an XC50 of 956 nM.

As to `Cc1nc2cc(/C=C/C(=O)NC3CCC(CCN4CCc5ccc(C#N)cc5CC4)CC3)ccc2[nH]1` (stereo not given), the XC50 was 1140 nM.

As to `O=C(Nc1cccc(-c2nn3ccccc3c2-c2ccnc(Nc3cccc(-c4cnco4)c3)n2)c1)C1CCCCC1`, the XC50 stood at 261 nM.

As to `CCCN(CCCCCCN(CCC)CCc1ccc(O)c(O)c1)CCc1ccc(O)cc1`, the XC50 was 1010 nM.

`Cc1cc(N(CCCN(C)C)Cc2cc(F)cc(F)c2)nc(Nc2ccc(Cl)cc2)n1` yielded an XC50 of 536 nM.

The compound `COc1ccnc(NCCCNCc2cn(S(=O)(=O)c3ccccc3)c3ccccc23)c1` registered an XC50 of 790 nM.

The compound `COc1ccc(-c2nc(NC(=O)CSc3ccc([N+](=O)[O-])cc3)sc2C)cc1` displayed an XC50 of 136 nM.

On to `NC1CCCN(Cc2cccc(-c3cccc(-c4nc5ccccc5[nH]4)c3)c2)C1` (stereo not given), for which the XC50 stood at 637 nM.

Compound `Cc1nnc2c(NC(=O)NC(C)C)cc3cc(-c4ccc(CN5CCCCC5)cc4)ccc3n12` returned an XC50 of 1180 nM.

In the case of `Cc1ccc(Cn2nc(Cl)c(N3CCNCC3)cc2=O)cc1NC(=O)Nc1ccc(-c2ccccc2)cc1`, the XC50 came out at 675 nM.

Consider `NC(=O)c1ccccc1Nc1nc(Nc2cc[nH]n2)ncc1Cl`, for which the XC50 was 958 nM.

The compound `CCOP(=O)(OCC)c1ccc(OC)c(-c2ccc[nH]2)c1` showed an XC50 of 1190 nM.

Compound `COc1ccc(CNC2CCN(C)CC2)cc1-c1ccc(S(=O)(=O)NC2CCC2)s1` registered an XC50 of 733 nM.

The compound `Cc1cc(NCCc2ccccc2)nc(N/C(=N/CC(=O)OC(C)(C)C)Nc2ccc(C(F)(F)F)cc2)n1` gave an XC50 of 335 nM.

For `Cc1cc(N)c2cc(NC(=O)c3ccc4ccccc4c3)ccc2n1`, the XC50 stood at 254 nM.

`CC(C)c1ccc(-c2noc(SCC(=O)N(C)c3ccc(F)cc3)n2)cc1` registered an XC50 of 1170 nM.

In the case of `Cc1cc(CN2CC[C@H](NC(=O)c3ccc(Cl)c(Cl)c3)C2)ccc1OCCCN(C)C`, the XC50 is 842 nM.

Compound `O=C(NCCN1CCCC1)c1ccc(-c2cccc(-c3nc4cc(F)ccc4[nH]3)c2)cc1` had an XC50 of 774 nM.

As for `CCCCCCCc1c(C)[nH]c2ccc(F)cc2c1=O`, the XC50 came to 289 nM.

Compound `Cc1nnsc1C(=O)Nc1cccc(-c2csc(-c3nc4ccccc4[nH]3)c2)c1` registered an XC50 of 351 nM.

On to `Cn1c2ccccc2c2c3ccccc3c(CNC(CO)(CO)CO)cc21`, for which the XC50 was 518 nM.

In turn, `COc1ccc2c(c1)CCN(CCN1CCC(CNC(=O)c3ccc(-c4ccc(C#N)cc4)cc3)CC1)C2` registered an XC50 of 617 nM.

The compound `O=C(Nc1cccnc1)c1cn(-c2ccccc2)nc1-c1cccs1` yielded an XC50 of 869 nM.

In turn, `COc1ccc2nccc([C@@H](O)CN3CCC(NC(=O)c4cc5ccccc5[nH]4)CC3)c2c1` displayed an XC50 of 969 nM.

On to `O=C(Nc1ccc(-c2ccccc2)cc1)Nc1ccc2c(c1)CCNCC2`, for which the XC50 is 348 nM.

For the compound `O=C(/C=C/c1ccc(Cl)c(Cl)c1)NCc1ccc(CN2CCC(c3c[nH]c4ccccc34)CC2)cc1`, the XC50 worked out at 711 nM.

The compound `COc1ccc2nccc(N3CCC(SCCNCc4cc5c(cn4)OCCO5)C3)c2n1` (stereo not given) yielded an XC50 of 768 nM.

`FC(F)(F)c1ccc2c(C=Cc3ccncc3)c[nH]c2c1` gave an XC50 of 707 nM.

In turn, `COc1cc(Nc2ccnc3ccc(C(F)(F)F)cc23)ccc1OCCCc1ccccc1` had an XC50 of 765 nM.

`CC(C)(C)OC(=O)Cn1cnc2cc(NC(=O)c3cc([N+](=O)[O-])cc([N+](=O)[O-])c3)ccc21`: the XC50 stood at 312 nM.

`CN1CC=C(c2c[nH]c3ccc(OC(=O)c4ccccc4)cc23)C1` came in with an XC50 of 800 nM.

In turn, `COc1ccc(Oc2ccccc2CNCC2CCN(CC3CCCCC3)CC2)cc1` had an XC50 of 904 nM.

On to `O=S(=O)(Nc1ccc2nccc(N3CCNCC3)c2c1)c1ccc2c(Cl)cccc2c1`, for which the XC50 came out at 573 nM.

`CN1Cc2ccc(NS(=O)(=O)c3ccc(-c4ccoc4)cc3)cc2C1` came in with an XC50 of 160 nM.

In turn, `CC(=O)c1ccc2cc(C(=O)NC3CCC(CCN4CCc5ccc(-c6noc(C)n6)cc5CC4)CC3)[nH]c2c1` (stereo not given) returned an XC50 of 946 nM.

In turn, `CC[C@H](C)CNC(=O)c1cncc(-c2cccc(CN(C)C3CCN(C)CC3)c2)c1` yielded an XC50 of 785 nM.

For `CCCCCCCN(CCCCCCC)CCNc1cc(C)nc2ccccc12`, the XC50 is 339 nM.

Regarding `CCOC(=O)COc1cccc(CNc2ccc3nc(N)nc(N)c3c2)c1`, the XC50 is 408 nM.

`O=C(NCCCc1ccccc1)c1csc(C2CCCN(C(=O)c3ccc(O)c(-c4cccc5ccccc45)c3)C2)n1` (stereo not given) gave an XC50 of 967 nM.

With `Cc1ccc2[nH]c3c(c2c1)CC(C(=O)NCCC(C)C)NC31CCN(Cc2ccccc2)CC1` (stereo not given), the XC50 worked out at 932 nM.

Turning to `Cc1cc(-c2cccc3c(NC(=O)N4CCc5cc6nccc(N7CCN8CCC[C@H]8C7)c6cc54)cccc23)cc(C)n1`, the XC50 stood at 485 nM.

`CC(Oc1ccc(Cl)cc1)C(=O)N(C)C1CCN(CCCCCNC(=O)/C=C/c2ccc(Cl)c(Cl)c2)CC1` (stereo not given) returned an XC50 of 959 nM.

The compound `Fc1cc(Cl)ccc1Nc1ccnc2cc(-c3ccc(CN4CCSCC4)o3)ccc12` had an XC50 of 782 nM.

`CCc1nnc2sc(-c3cccc(NC(=O)c4ccc(C)c([N+](=O)[O-])c4)c3)nn12` returned an XC50 of 1410 nM.

In the case of `Cc1cc(NC(=O)c2ccsc2)ccc1OC1CCN(Cc2ccc(F)cc2)CC1`, the XC50 amounted to 1220 nM.

With `O=C(/C=C/c1ccc(Cl)c(Cl)c1)NCCCCCN1CCC(NC(=O)Nc2ccc(F)c(Cl)c2)CC1`, the XC50 was 619 nM.

As to `COc1ccc2ncc(F)c(CCN3CC[C@H](NCc4cc(C#N)c5c(c4)OCCO5)[C@H](O)C3)c2c1`, the XC50 amounted to 885 nM.

With `O=C(Nc1cccc(CN2CCCN(Cc3cccc(Cl)c3)CC2)c1)c1ccc(Cl)c(Cl)c1`, the XC50 was found to be 992 nM.

Take `Cc1ccnc2nc(C(=O)Nc3cc(C(F)(F)F)ccc3N3CCCCC3)nn12`: the XC50 was 61.8 nM.

Compound `Cc1ccc(S(=O)(=O)c2nc(S(=O)(=O)c3ccccc3)sc2NCC2CCCO2)cc1` (stereo not given) showed an XC50 of 1020 nM.

For the compound `CC(C)c1ccc(CN2CCC(CNC(=O)c3cc(-c4cccc(C(F)(F)F)c4)cs3)C2)cc1` (stereo not given), the XC50 came to 914 nM.

The compound `O=S(=O)(Nc1cccc(CCN2CCC(N3CCCCC3)CC2)c1)c1ccc(Cl)cc1` displayed an XC50 of 916 nM.

For `COc1ccccc1CN1CCC(NC(=O)c2ccc(-c3cccc(Cl)c3)s2)CC1`, the XC50 was 1420 nM.
